{"source": "paper PMC5218480", "about": "(PLoS ONE, 2017)", "tested_on": "MV-4-11 cells", "experiment": "Gene expression microarray analysis (Affymetrix PrimeView) and GSEA", "format": "cell-based, human", "design": "RFU PODN (11730768_x_at) / Fold change /veh PODN (11730768_x_at) / RFU LINC00158 (11744669_a_at) / Fold change /veh LINC00158 (11744669_a_at) / RFU DUSP10 (11751237_a_at) / Fold change /veh DUSP10 (11751237_a_at) / RFU ID3 (11757404_x_at) / Fold change /veh ID3 (11757404_x_at) / RFU PLEKHG5 (11737974_s_at) / Fold change /veh PLEKHG5 (11737974_s_at) / RFU LRRC4B (11730491_at) / Fold change /veh LRRC4B (11730491_at) / RFU GIMAP4 (11747438_a_at) / Fold change /veh GIMAP4 (11747438_a_at) / RFU KRT8 (11758183_x_at) / Fold change /veh KRT8 (11758183_x_at) / RFU CNN1 (11734310_a_at) / Fold change /veh CNN1 (11734310_a_at) / RFU VPS37D (11726825_at) / Fold change /veh VPS37D (11726825_at) / RFU C10orf10 (11716522_x_at) / Fold change /veh C10orf10 (11716522_x_at) / RFU KIR2DL2 /// KIR2DL4 /// KIR2DL5A /// KIR2DL5B /// KIR2DS1 /// KIR2DS2 /// KIR2DS3 /// KIR2DS4 /// KIR3DL3 /// KIR3DL3 /// KIR3DS1 (11738374_at) / Fold change /veh KIR2DL2 /// KIR2DL4 /// KIR2DL5A /// KIR2DL5B /// KIR2DS1 /// KIR2DS2 /// KIR2DS3 /// KIR2DS4 /// KIR3DL3 /// KIR3DL3 /// KIR3DS1 (11738374_at) / RFU C1QL1 (11718748_at) / Fold change /veh C1QL1 (11718748_at) / RFU TMPRSS4 (11747572_a_at) / Fold change /veh TMPRSS4 (11747572_a_at) / RFU HAMP (11756126_x_at) / Fold change /veh HAMP (11756126_x_at) / RFU RNFT2 (11725882_a_at) / Fold change /veh RNFT2 (11725882_a_at) / RFU NR4A2 (11747474_a_at) / Fold change /veh NR4A2 (11747474_a_at) / RFU ABCC12 (11746883_a_at) / Fold change /veh ABCC12 (11746883_a_at) / RFU TMEM136 (11760407_x_at) / Fold change /veh TMEM136 (11760407_x_at) / RFU CLDN22 /// WWC2 (11732394_at) / Fold change /veh CLDN22 /// WWC2 (11732394_at) / RFU HLA-DPB1 (11760878_x_at) / Fold change /veh HLA-DPB1 (11760878_x_at) / RFU SPINT1 (11716480_a_at) / Fold change /veh SPINT1 (11716480_a_at) / RFU GAP43 (11754022_s_at) / Fold change /veh GAP43 (11754022_s_at) / RFU A4GNT (11735810_at) / Fold change /veh A4GNT (11735810_at) / RFU PRB3 (11715151_x_at) / Fold change /veh PRB3 (11715151_x_at) / RFU TUBB4B (11761932_at) / Fold change /veh TUBB4B (11761932_at) / RFU CAPN14 (11732068_a_at) / Fold change /veh CAPN14 (11732068_a_at) / RFU TMCC2 (11721928_a_at) / Fold change /veh TMCC2 (11721928_a_at) / RFU IRGQ (11745062_a_at) / Fold change /veh IRGQ (11745062_a_at) / RFU FAM174B (11720279_a_at) / Fold change /veh FAM174B (11720279_a_at) / RFU TMPRSS4 (11748680_a_at) / Fold change /veh TMPRSS4 (11748680_a_at) / RFU FAM212B (11763350_a_at) / Fold change /veh FAM212B (11763350_a_at) / RFU PLEKHG5 (11743358_a_at) / Fold change /veh PLEKHG5 (11743358_a_at) / RFU ZSCAN30 (11745921_a_at) / Fold change /veh ZSCAN30 (11745921_a_at) / RFU CMKLR1 (11741424_a_at) / Fold change /veh CMKLR1 (11741424_a_at) / RFU LOC101060620 /// MAPK8IP1 (11723275_at) / Fold change /veh LOC101060620 /// MAPK8IP1 (11723275_at) / RFU SPTSSB (11747773_x_at) / Fold change /veh SPTSSB (11747773_x_at) / RFU PRSS12 (11739890_at) / Fold change /veh PRSS12 (11739890_at) / RFU BIN1 (11741810_x_at) / Fold change /veh BIN1 (11741810_x_at) / RFU WNT11 (11732464_a_at) / Fold change /veh WNT11 (11732464_a_at) / RFU C10orf10 (11716521_a_at) / Fold change /veh C10orf10 (11716521_a_at) / RFU C5orf56 (11738089_at) / Fold change /veh C5orf56 (11738089_at) / RFU CYB561 (11721691_x_at) / Fold change /veh CYB561 (11721691_x_at) / RFU ANKRD19P (11752326_a_at) / Fold change /veh ANKRD19P (11752326_a_at) / RFU OR2T12 /// OR2T33 /// OR2T8 (11738714_s_at) / Fold change /veh OR2T12 /// OR2T33 /// OR2T8 (11738714_s_at) / RFU VCAN (11748164_a_at) / Fold change /veh VCAN (11748164_a_at) / RFU JSRP1 (11732532_at) / Fold change /veh JSRP1 (11732532_at) / RFU KRTAP10-11 (11738290_x_at) / Fold change /veh KRTAP10-11 (11738290_x_at) / RFU MYO3A (11730013_a_at) / Fold change /veh MYO3A (11730013_a_at) / RFU EBF3 (11725865_a_at) / Fold change /veh EBF3 (11725865_a_at) / RFU CAMK2N1 (11719241_x_at) / Fold change /veh CAMK2N1 (11719241_x_at) / RFU C5orf56 (11738088_a_at) / Fold change /veh C5orf56 (11738088_a_at) / RFU OLFML3 (11715873_a_at) / Fold change /veh OLFML3 (11715873_a_at) / RFU LOC100653217 /// NTM (11731650_a_at) / Fold change /veh LOC100653217 /// NTM (11731650_a_at) / RFU MAPK11 (11762145_a_at) / Fold change /veh MAPK11 (11762145_a_at) / RFU FIZ1 (11724087_x_at) / Fold change /veh FIZ1 (11724087_x_at) / RFU OASL (11726364_x_at) / Fold change /veh OASL (11726364_x_at) / RFU SOX15 (11748057_x_at) / Fold change /veh SOX15 (11748057_x_at) / RFU CD79A (11719716_a_at) / Fold change /veh CD79A (11719716_a_at) / RFU HIST1H1D (11736915_at) / Fold change /veh HIST1H1D (11736915_at) / RFU CASKIN2 (11723855_a_at) / Fold change /veh CASKIN2 (11723855_a_at) / RFU LOC730098 (11760151_x_at) / Fold change /veh LOC730098 (11760151_x_at) / RFU OR4N2 (11742367_at) / Fold change /veh OR4N2 (11742367_at) / RFU PRRT2 (11749266_a_at) / Fold change /veh PRRT2 (11749266_a_at) / RFU SNX32 (11753110_a_at) / Fold change /veh SNX32 (11753110_a_at) / RFU CDHR5 (11726645_a_at) / Fold change /veh CDHR5 (11726645_a_at) / RFU RCAN1 (11760418_a_at) / Fold change /veh RCAN1 (11760418_a_at) / RFU FAM167A (11723789_a_at) / Fold change /veh FAM167A (11723789_a_at) / RFU FAM26E (11764081_at) / Fold change /veh FAM26E (11764081_at) / RFU ISYNA1 (11749810_s_at) / Fold change /veh ISYNA1 (11749810_s_at) / RFU ACY1 (11761880_at) / Fold change /veh ACY1 (11761880_at) / RFU 11764098_at / Fold change /veh 11764098_at / RFU SAMD14 (11745864_x_at) / Fold change /veh SAMD14 (11745864_x_at) / RFU NPB (11741838_a_at) / Fold change /veh NPB (11741838_a_at) / RFU TMPRSS6 (11731388_a_at) / Fold change /veh TMPRSS6 (11731388_a_at) / RFU KRTAP10-2 (11738614_at) / Fold change /veh KRTAP10-2 (11738614_at) / RFU ARHGAP8 /// PRR5-ARHGAP8 (11727945_x_at) / Fold change /veh ARHGAP8 /// PRR5-ARHGAP8 (11727945_x_at) / RFU KRTAP5-7 /// NADSYN1 (11734609_at) / Fold change /veh KRTAP5-7 /// NADSYN1 (11734609_at) / RFU RASL12 (11751679_a_at) / Fold change /veh RASL12 (11751679_a_at) / RFU CDKN2B (11736163_a_at) / Fold change /veh CDKN2B (11736163_a_at) / RFU PRF1 (11729649_at) / Fold change /veh PRF1 (11729649_at) / RFU, ZNF638 /// ZNF638-IT1 / Fold change vs veh, ZNF638 /// ZNF638-IT1 / RFU, PANK3 / Fold change vs veh, PANK3 / RFU, SH3YL1 / Fold change vs veh, SH3YL1 / RFU, ZEB2 / Fold change vs veh, ZEB2 / RFU, NRIP1 / Fold change vs veh, NRIP1 / RFU, PTTG1IP / Fold change vs veh, PTTG1IP / RFU, CAPN2 / Fold change vs veh, CAPN2 / RFU, MED14 / Fold change vs veh, MED14 / RFU, SNORA58 / Fold change vs veh, SNORA58 / RFU, C1orf63 / Fold change vs veh, C1orf63 / RFU, LRRFIP1 / Fold change vs veh, LRRFIP1 / RFU, NDUFAF7 / Fold change vs veh, NDUFAF7 / RFU, SLC12A2 / Fold change vs veh, SLC12A2 / RFU, IBTK / Fold change vs veh, IBTK / RFU, ESF1 / Fold change vs veh, ESF1 / Fold change vs veh, TMEM50B / RFU, TAOK1 / Fold change vs veh, TAOK1 / RFU, ACBD3 / Fold change vs veh, ACBD3 / RFU, TMA16 / Fold change vs veh, TMA16 / RFU, RWDD3 / Fold change vs veh, RWDD3 / RFU, BCAT1 / Fold change vs veh, BCAT1 / RFU, EDEM3 / Fold change vs veh, EDEM3 / RFU, TMEM33 / Fold change vs veh, TMEM33 / RFU, WDR75 / Fold change vs veh, WDR75 / RFU, AHCTF1 / Fold change vs veh, AHCTF1 / RFU, TFRC / Fold change vs veh, TFRC / RFU, ZDHHC17 / Fold change vs veh, ZDHHC17 / RFU, NOM1 / Fold change vs veh, NOM1 / RFU, ARL8B / Fold change vs veh, ARL8B / RFU, ZBTB11 / Fold change vs veh, ZBTB11 / RFU, TAMM41 / Fold change vs veh, TAMM41 / RFU, KIAA1704 /// LOC100996395 / Fold change vs veh, KIAA1704 /// LOC100996395 / RFU, ING1 / Fold change vs veh, ING1 / RFU, TRMT61B / Fold change vs veh, TRMT61B / RFU, FUBP3 / Fold change vs veh, FUBP3 / RFU, TP53 / Fold change vs veh, TP53 / RFU, TNKS2 / Fold change vs veh, TNKS2 / RFU, ZFP14 / Fold change vs veh, ZFP14 / RFU, ACTR2 / Fold change vs veh, ACTR2 / RFU, PPP3R1 / Fold change vs veh, PPP3R1 / RFU, PIK3R1 / Fold change vs veh, PIK3R1 / RFU, HNRNPA1 / Fold change vs veh, HNRNPA1 / RFU, RNF170 / Fold change vs veh, RNF170 / RFU, ZNF28 / Fold change vs veh, ZNF28 / RFU, RNGTT / Fold change vs veh, RNGTT / RFU, OGT / Fold change vs veh, OGT / RFU, BRD1 / Fold change vs veh, BRD1 / RFU, MARS / Fold change vs veh, MARS / RFU, ZNF655 / Fold change vs veh, ZNF655 / RFU, FAHD1 / Fold change vs veh, FAHD1 / RFU, BDP1 / Fold change vs veh, BDP1 / RFU, LRRCC1 / Fold change vs veh, LRRCC1 / RFU, ARID1A / Fold change vs veh, ARID1A / RFU, ZNF146 / Fold change vs veh, ZNF146 / RFU, ZNF330 / Fold change vs veh, ZNF330 / RFU, GPN3 / Fold change vs veh, GPN3 / RFU, C9orf123 / Fold change vs veh, C9orf123 / RFU, N4BP2L2 / Fold change vs veh, N4BP2L2 / RFU, ARFIP1 / Fold change vs veh, ARFIP1 / RFU, FAM179B / Fold change vs veh, FAM179B / RFU, BCL10 / Fold change vs veh, BCL10 / RFU, UHRF1BP1L / Fold change vs veh, UHRF1BP1L / RFU, BET1 / Fold change vs veh, BET1 / RFU, CNOT2 / Fold change vs veh, CNOT2 / RFU, ZNF268 / Fold change vs veh, ZNF268 / Fold change vs veh, ZNF507 / RFU, DGCR2 / Fold change vs veh, DGCR2 / RFU, WDSUB1 / Fold change vs veh, WDSUB1 / Fold change vs veh, HSP90B1 /// MIR3652 / RFU, ADSS / Fold change vs veh, ADSS / RFU, GK / Fold change vs veh, GK / RFU, ZNF148 / Fold change vs veh, ZNF148 / RFU, TAF9 / Fold change vs veh, TAF9 / RFU, SLC1A5 / Fold change vs veh, SLC1A5 / RFU, SLMO2 / Fold change vs veh, SLMO2 / RFU, ABCC4 / Fold change vs veh, ABCC4 / RFU, LOC101060439 /// RAP1B / Fold change vs veh, LOC101060439 /// RAP1B / RFU, RFX7 / Fold change vs veh, RFX7 / RFU, GTPBP10 / Fold change vs veh, GTPBP10 / RFU, CNEP1R1 / Fold change vs veh, CNEP1R1 / RFU, BIVM-ERCC5 /// ERCC5 / Fold change vs veh, BIVM-ERCC5 /// ERCC5 / RFU, ILF3 / Fold change vs veh, ILF3 / RFU 11762660_at / Fold change /veh 11762660_at / RFU VCAN (11757783_s_at) / Fold change /veh VCAN (11757783_s_at) / RFU DDX43 (11728927_at) / Fold change /veh DDX43 (11728927_at) / RFU KRT8 (11758188_x_at) / Fold change /veh KRT8 (11758188_x_at) / RFU NKD1 (11759106_at) / Fold change /veh NKD1 (11759106_at) / RFU SRD5A1 (11742802_a_at) / Fold change /veh SRD5A1 (11742802_a_at) / RFU TPSAB1 /// TPSB2 (11721975_s_at) / Fold change /veh TPSAB1 /// TPSB2 (11721975_s_at) / RFU GSTM3 (11746129_a_at) / Fold change /veh GSTM3 (11746129_a_at) / RFU IL23R (11737362_x_at) / Fold change /veh IL23R (11737362_x_at) / RFU TMEM51 (11727254_a_at) / Fold change /veh TMEM51 (11727254_a_at) / RFU PIWIL2 (11732686_x_at) / Fold change /veh PIWIL2 (11732686_x_at) / RFU ORM1 (11744905_x_at) / Fold change /veh ORM1 (11744905_x_at) / RFU CCDC152 (11743942_at) / Fold change /veh CCDC152 (11743942_at) / RFU ECM1 (11717891_a_at) / Fold change /veh ECM1 (11717891_a_at) / RFU IL23R (11748794_a_at) / Fold change /veh IL23R (11748794_a_at) / RFU TNFAIP8L3 (11732012_x_at) / Fold change /veh TNFAIP8L3 (11732012_x_at) / RFU MBOAT4 (11741988_at) / Fold change /veh MBOAT4 (11741988_at) / RFU 11764193_at / Fold change /veh 11764193_at / RFU TMEM53 (11763286_at) / Fold change /veh TMEM53 (11763286_at) / RFU MAGEB2 (11727129_at) / Fold change /veh MAGEB2 (11727129_at) / RFU TMEM200A (11744735_a_at) / Fold change /veh TMEM200A (11744735_a_at) / RFU CCDC152 (11751479_a_at) / Fold change /veh CCDC152 (11751479_a_at) / RFU FAM211A (11726209_a_at) / Fold change /veh FAM211A (11726209_a_at) / RFU RGS16 (11746705_a_at) / Fold change /veh RGS16 (11746705_a_at) / RFU VCAN (11755009_s_at) / Fold change /veh VCAN (11755009_s_at) / RFU RHOB (11743442_s_at) / Fold change /veh RHOB (11743442_s_at) / RFU RGS16 (11720943_a_at) / Fold change /veh RGS16 (11720943_a_at) / RFU RGS16 (11720944_at) / Fold change /veh RGS16 (11720944_at) / RFU, VPS4B / Fold change vs veh, VPS4B / RFU, CREB1 / Fold change vs veh, CREB1 / RFU, DNAJC13 / Fold change vs veh, DNAJC13 / RFU, GNAQ / Fold change vs veh, GNAQ / RFU, CDK5R1 / Fold change vs veh, CDK5R1 / RFU, ZRANB3 / Fold change vs veh, ZRANB3 / RFU, CUL4A / Fold change vs veh, CUL4A / RFU, CCNY / Fold change vs veh, CCNY / RFU, UFL1 / Fold change vs veh, UFL1 / RFU, COG3 / Fold change vs veh, COG3 / RFU, DIAPH2 / Fold change vs veh, DIAPH2 / RFU, SKA2 / Fold change vs veh, SKA2 / RFU, AFF3 / Fold change vs veh, AFF3 / RFU, LMF1 / Fold change vs veh, LMF1 / RFU, IPO11 / Fold change vs veh, IPO11 / RFU, DFFB / Fold change vs veh, DFFB / RFU, FOXP1 / Fold change vs veh, FOXP1 / RFU, CARD8 / Fold change vs veh, CARD8 / RFU, STRN3 / Fold change vs veh, STRN3 / RFU, ADK / Fold change vs veh, ADK / RFU, RASSF2 / Fold change vs veh, RASSF2 / RFU, WIPF1 / Fold change vs veh, WIPF1 / RFU, LARP1B / Fold change vs veh, LARP1B / RFU, RASA1 / Fold change vs veh, RASA1 / RFU, RB1 / Fold change vs veh, RB1 / RFU, PPFIA1 / Fold change vs veh, PPFIA1 / RFU, MAT2A / Fold change vs veh, MAT2A / RFU, CCT5 / Fold change vs veh, CCT5 / RFU, WDR92 / Fold change vs veh, WDR92 / RFU, CUX1 / Fold change vs veh, CUX1 / RFU, TTC7A / Fold change vs veh, TTC7A / RFU, TMEM135 / Fold change vs veh, TMEM135 / RFU, DEPTOR / Fold change vs veh, DEPTOR / RFU, CPM / Fold change vs veh, CPM / RFU, DNAJB6 / Fold change vs veh, DNAJB6 / RFU, CACNA2D3 / Fold change vs veh, CACNA2D3 / RFU, DTX4 / Fold change vs veh, DTX4 / RFU, TFCP2 / Fold change vs veh, TFCP2 / RFU, GMCL1 /// GMCL1P1 / Fold change vs veh, GMCL1 /// GMCL1P1 / RFU, AEBP2 / Fold change vs veh, AEBP2 / RFU, SNHG1 /// SNORD22 /// SNORD25 /// SNORD26 /// SNORD27 /// SNORD28 /// SNORD29 /// SNORD31 / Fold change vs veh, SNHG1 /// SNORD22 /// SNORD25 /// SNORD26 /// SNORD27 /// SNORD28 /// SNORD29 /// SNORD31 / Fold change (Aza/veh), C12orf56 (ProbeSet 11735607_a_at) / Fold change (ACY-1035/veh), C12orf56 (ProbeSet 11735607_a_at) / Fold change (Aza/veh), FGFR1OP (ProbeSet 11751329_s_at) / Fold change (ACY-1035/veh), FGFR1OP (ProbeSet 11751329_s_at) / Fold change (Aza/veh), VPS36 (ProbeSet 11739960_a_at) / Fold change (ACY-1035/veh), VPS36 (ProbeSet 11739960_a_at) / RFU SYPL1 (11715823_x_at) / Fold change /veh SYPL1 (11715823_x_at) / RFU IGFBP7 (11715501_s_at) / Fold change /veh IGFBP7 (11715501_s_at) / RFU REEP3 (11722064_at) / Fold change /veh REEP3 (11722064_at) / RFU IGLL1 (11728026_x_at) / Fold change /veh IGLL1 (11728026_x_at): dose or concentration left out as unconfirmed", "settings": "ProbeSet 11727827_x_at; LIST B", "data": [{"smiles": "Nc1ccc(-c2cccs2)cc1NC(=O)c1ccc2c(c1)cc(C1CC1)n2CCN1CCOCC1", "note": "[ACY-1035]", "values": [{"measurement": "Fold change vs veh, NDUFAF7", "value": 1.01}]}]}
